One data set relates to Alternaria solani. Nature of the data set: in vivo preventive test on Alternaria test (tomatoes). To be noted: preventive spray, evaluated 3 days after inoculation. The source says:
(§1) A synergistic effect of fungicides is always present when the fungicidal activity of the active compound combinations exceeds the total of the activities of the active compounds when applied individually. The expected activity for a given combination of two active compounds can be calculated as follows (cf. Colby, S. R., “Calculating Synergistic and Antagonistic Responses of Herbicide Combinations”, Weeds 1967, 15, 20-22): • If • X is the efficacy when active compound A is applied at an application rate of m ppm (or g/ha), • Y is the efficacy when active compound B is applied at an application rate of n ppm (or g/ha), • E is the efficacy when the active compounds A and B are applied at application rates of m and n ppm (or g/ha), respectively, and • then
(§2) The degree of efficacy, expressed in % is denoted. 0% means an efficacy which corresponds to that of the control while an efficacy of 100% means that no disease is observed.
To produce a suitable preparation of active compound, 1 part by weight of active compound is mixed with the stated amounts of solvent and emulsifier, and the concentrate is diluted with water to the desired concentration.
To test for preventive activity, young plants are sprayed with the preparation of active compound at the stated rate of application. After the spray coating has dried on, the plants are inoculated with an aqueous spore suspension of Alternaria solani. The plants are then placed in an incubation cabinet at approximately 20° C. and a relative atmospheric humidity of 100%.
The test is evaluated 3 days after the inoculation. 0% means an efficacy which corresponds to that of the untreated control while an efficacy of 100% means that no disease is observed.

In a further data set the test system is Septoria tritici. Nature of the data set: in vivo preventive Septoria tritici test (wheat). The following applies: preventive spray, evaluated 21 days after inoculation.
Text: as §1, §2
To produce a suitable preparation of active compound, 1 part by weight of active compound or active compound combination is mixed with the stated amounts of solvent and emulsifier, and the concentrate is diluted with water to the desired concentration.
To test for preventive activity, young plants are sprayed with the preparation of active compound or active compound combination at the stated rate of application.
After the spray coating has been dried, the plants are sprayed with a spore suspension of Septoria tritici. The plants remain for 48 hours in an incubation cabinet at approximately 20° C. and a relative atmospheric humidity of approximately 100% and afterwards for 60 hours at approximately 15° C. in a translucent incubation cabinet at a relative atmospheric humidity of approximately 100%.
The plants are placed in the greenhouse at a temperature of approximately 15° C. and a relative atmospheric humidity of approximately 80%.
The test is evaluated 21 days after the inoculation. 0% means an efficacy which corresponds to that of the untreated control, while an efficacy of 100% means that no disease is observed.

Data set [1] can be described thus: log P by HPLC on reversed phase columns (EEC directive 79/831 Annex V.A8). The class given is physicochemical. To be noted: pH 2.7, pH 2,7, 0.1% formic acid in water / acetonitrile gradient. How it is done:
Measurement of log P values was performed according EEC directive 79/831 Annex V.A8 by HPLC (High Performance Liquid Chromatography) on reversed phase columns with the following methods: ^[a] Measurement of LC-MS was done at pH 2,7 with 0.1% formic acid in water and with acetonitrile (contains 0.1% formic acid) as eluent with a linear gradient from 10% acetonitrile to 95% acetonitrile. Calibration was done with not branched alkan2-ones (with 3 to 16 carbon atoms) with known log P-values (measurement of log P values using retention times with linear interpolation between successive alkanones). lambda-maX-values were determined using UV-spectra from 200 nm to 400 nm and the peak values of the chromatographic signals.

This is an account of results in US20160330959A1, “FUNGICIDAL COMPOSITIONS OF PYRAZOLECARBOXYLIC ACID ALKOXYAMIDES” (BAYER CROPSCIENCE AKTIENGESELLSCHAFT, priority 2014, published 2016).

With `CON(C(=O)c1cn(C)nc1C(F)F)C(C)Cc1c(Cl)cc(Cl)cc1Cl` (stereo not drawn) [Compound I-1, 3-(difluoromethyl)-N-methoxy-1-methyl-N-[1-(2,4,6-trichlorophenyl)propan-2-yl]-1H-pyrazole-4-carboxamide], the “Efficacy in % found” value with Alternaria solani (0.125 ppm a.i.) is recorded as 73%; in the data set on Alternaria solani (0.25 ppm a.i.) it was 85%; in the data set on Septoria tritici (5 ppm a.i.) it was 50%; with Septoria tritici (10 ppm a.i.), 63%.
Consider `Cc1nc2c(F)c(F)ccc2cc1Oc1cccc(F)c1C(C)(C)O` [Compound B1-3, 2-{2-[(7,8-difluoro-2-methylquinolin-3-yl)oxy]-6-fluorophenyl}propan-2-ol], for which the “Efficacy in % found” value in the data set with Septoria tritici (50 ppm a.i.) worked out at 25%.
With `CC1(C)CN=C(c2cnc3ccccc3c2)c2cccc(F)c2O1` [Compound B1-1, 9-fluoro-2,2-dimethyl-5-(quinolin-3-yl)-2,3-dihydro-1,4-benzoxazepine], in the data set with Septoria tritici (50 ppm a.i.), the “Efficacy in % found” value is recorded as 25%.
In the case of `Cc1nc2c(F)cccc2cc1Oc1cccc(F)c1C(C)(C)O` [Compound B1-2, 2-{2-fluoro-6-[(8-fluoro-2-methylquinolin-3-yl)oxy]phenyl}propan-2-ol], in the data set on Septoria tritici (50 ppm a.i.), the “Efficacy in % found” value is reported as 0%.
Turning to `CC1(C)N=C(c2cnc3ccccc3c2)c2ccccc2C1(F)F` [Compound B1-4], the “Efficacy in % found” value is given as 0% in the data set on Alternaria solani (0.125 ppm a.i.), 0% in the data set on Alternaria solani (0.25 ppm a.i.), 15% in the data set on Alternaria solani (0.5 ppm a.i.) and 13% with Septoria tritici (60 ppm a.i.).
The term chromatographic logP denotes a lipophilicity value derived from retention on a column. Read a low chromatographic logP as a more hydrophilic compound. For `CON(C(=O)c1c(C(F)F)nn(C)c1F)C(C)Cc1c(Cl)cc(Cl)cc1Cl` (stereo not drawn) [Compound I-2, 3-(difluoromethyl)-5-fluoro-N-methoxy-1-methyl-N-[1-(2,4,6-trichlorophenyl)propan-2-yl]-1H-pyrazole-4-carboxamide], the chromatographic logP in data set [1] worked out at 4.29.
